US10138254B2, “Bicyclic compounds as pest control agents” (BAYER CROPSCIENCE AKTIENGESELLSCHAFT, priority 2014, dated 2018)
Where two headings read alike, the source gives them in different places.

Columns and labels:
[1] = log P by HPLC on reversed-phase (C18) columns, OECD Guideline 117; type: physicochemical; conditions: for chromatographic logP: reversed-phase (C18) HPLC column
Protocol: The log P values were determined in accordance with OECD Guideline 117 (EC Directive 92/69/EEC) by HPLC (high-performance liquid chromatography) using reversed-phase (RP) columns (C18), by the following methods: [a] The LC-MS determination in the acidic range is carried out at pH 2.7 with 0.1% aqueous formic acid and acetonitrile (contains 0.1% formic acid) as eluents; linear gradient from 10% acetonitrile to 95% acetonitrile. [b] LC-MS determination in the neutral range is effected at pH 7.8 with 0.001 molar aqueous ammonium hydrogencarbonate solution and acetonitrile as eluents; linear gradient from 10% acetonitrile to 95% acetonitrile. Calibration is carried out using unbranched alkan-2-ones (having 3 to 16 carbon atoms) with known log P values (log P values determined on the basis of the retention times by linear interpolation between two successive alkanones).

[2] = system: green peach aphid (Myzus persicae); assay: Myzus persicae spray test (Chinese cabbage leaf discs); type: in vivo; conditions: application rate 500 g/ha, after 6 days, 100% = all aphids killed; for pest or weed control at 500 g/ha: Myzus persicae, foliar, 144 h, read-out: efficacy
Protocol: Myzus persicae—Spray Test Solvent: 78 parts by weight of acetone • • 1.5 parts by weight of dimethylformamide Emulsifier: alkylaryl polyglycol ether To produce a suitable active ingredient formulation, 1 part by weight of active ingredient is dissolved with the specified parts by weight of solvent and made up with water containing an emulsifier concentration of 1000 ppm until the desired concentration is attained. To produce further test concentrations, the formulation is diluted with emulsifier-containing water. Discs of Chinese cabbage leaves (Brassica pekinensis) infested by all stages of the green peach aphid (Myzus persicae) are sprayed with an active ingredient formulation of the desired concentration. After 6 days, the efficacy in % is determined. 100% means that all the aphids have been killed; 0% means that no aphids have been killed.

[3] = system: greenhouse red spider mite (Tetranychus urticae); assay: Tetranychus urticae spray test, OP-resistant (bean leaf discs); type: in vivo; conditions: application rate 500 g/ha, after 6 days, 100% = all spider mites killed
Protocol: Tetranychus urticae—Spray Test, OP-Resistant
Solvent: 78.0 parts by weight of acetone • • 1.5 parts by weight of dimethylformamide
Emulsifier: alkylaryl polyglycol ether
To produce a suitable active ingredient formulation, 1 part by weight of active ingredient is dissolved with the specified parts by weight of solvent and made up with water containing an emulsifier concentration of 1000 ppm until the desired concentration is attained. To produce further test concentrations, the formulation is diluted with emulsifier-containing water.
Discs of bean leaves (Phaseolus vulgaris) infested with all stages of the greenhouse red spider mite (Tetranychus urticae) are sprayed with an active ingredient formulation of the desired concentration.
After 6 days, the efficacy in % is determined. 100% means that all the spider mites have been killed; 0% means that no spider mites have been killed.

[4] = acidic range, pH 2.7, 0.1% aqueous formic acid and acetonitrile
[5] = neutral range, pH 7.8, 0.001 molar aqueous ammonium hydrogencarbonate and acetonitrile
[6] = acidic range, pH 2.7, 0.1% aqueous formic acid and acetonitrile, read-out: LogP[a]
[7] = neutral range, pH 7.8, 0.001 molar aqueous ammonium hydrogencarbonate and acetonitrile, read-out: logP[b]

SMILES	LogP[a] [1, 4]	logP[b] [1, 5]	pest or weed control at 500 g/ha [2] [%]	chromatographic logP [1, 6]	chromatographic logP [1, 7]	also measured
c1ccc(-c2cnc3nc(-c4cccnc4)sc3c2)cc1 [Example 1]	2.47	2.56	–	–	–	–
Cc1ccccc1-c1cnc2nc(-c3cccnc3)sc2c1 [Example 2, 6-(2-Methylphenyl)-2-(pyridin-3-yl)[1,3]thiazolo[4,5-b]pyridine]	–	–	100	2.76	2.8	–
Cc1cccc(-c2cnc3nc(-c4cccnc4)sc3c2)c1 [Example 3]	2.91	2.95	–	–	–	–
Cc1ccc(-c2cnc3nc(-c4cccnc4)sc3c2)cc1 [Example 4]	2.91	2.96	–	–	–	efficacy [2]: 100%
Fc1ccccc1-c1cnc2nc(-c3cccnc3)sc2c1 [Example 5]	2.51	2.54	–	–	–	–
Clc1ccccc1-c1cnc2nc(-c3cccnc3)sc2c1 [Example 6]	2.77	2.78	–	–	–	efficacy [2]: 100%
Clc1cccc(-c2cnc3nc(-c4cccnc4)sc3c2)c1 [Example 7, 6-(3-Chlorophenyl)-2-(pyridin-3-yl)[1,3]thiazolo[4,5-b]pyridine]	–	–	100	2.98	3.01	–
Clc1ccc(-c2cnc3nc(-c4cccnc4)sc3c2)cc1 [Example 8]	2.98	3.03	–	–	–	–
CSc1cccc(-c2cnc3nc(-c4cccnc4)sc3c2)c1 [Example 9]	–	2.96	–	–	–	efficacy [2]: 100%
CCSc1cccc(-c2cnc3nc(-c4cccnc4)sc3c2)c1 [Example 10]	–	3.36	–	–	–	–
CCSc1ccc(-c2cnc3nc(-c4cccnc4)sc3c2)cc1 [Example 11]	3.34	3.37	–	–	–	–
CC[S+]([O-])c1ccc(-c2cnc3nc(-c4cccnc4)sc3c2)cc1 (stereo not shown) [Example 12]	1.58	1.86	–	–	–	–
CC[S+]([O-])c1ccc(-c2cnc3nc(-c4ccc[n+]([O-])c4)sc3c2)cc1 (stereo not shown) [Example 13]	1.85	1.85	–	–	–	efficacy [2]: 90%
CCSc1ccccc1-c1cnc2nc(-c3cccnc3)sc2c1 [Example 14, 6-[2-(Ethylsulphanyl)phenyl]-2-(pyridin-3-yl)[1,3]thiazolo[4,5-b]pyridine]	–	–	–	3.12	3.13	–
CC[S+]([O-])c1ccccc1-c1cnc2nc(-c3cccnc3)sc2c1 (stereo not shown) [Example 15, 6-[2-(Ethylsulphinyl)phenyl]-2-(pyridin-3-yl)[1,3]thiazolo[4,5-b]pyridine]	–	–	–	1.58	1.59	–
CC[S+]([O-])c1ccccc1-c1cnc2nc(-c3ccc[n+]([O-])c3)sc2c1 (stereo not shown) [Example 16, 6-[2-(Ethylsulphinyl)phenyl]-2-(1-oxidopyridin-3-yl)[1,3]thiazolo[4,5-b]pyridine]	–	–	90	1.86	1.87	–
Cc1ccc(-c2cnc3nc(-c4cccnc4)sc3c2)cc1SCC(F)(F)F [Example 17]	3.74	3.68	–	–	–	efficacy [2]: 90%
Cc1ccc(-c2cnc3nc(-c4cccnc4)sc3c2)cc1[S+]([O-])CC(F)(F)F (stereo not shown) [Example 18]	2.4	2.34	–	–	–	efficacy [2]: 90%

SMILES	LogP[a] [1, 4]	logP[b] [1, 5]	pest or weed control at 500 g/ha [2] [%]	chromatographic logP [1, 6]	chromatographic logP [1, 7]	also measured
Cc1cc(C)c(-c2cnc3nc(-c4cccnc4)sc3c2)cc1SCC(F)(F)F [Example 19, 6-{2,4-Dimethyl-5-[(2,2,2-trifluoroethyl)sulphanyl]phenyl}-2-(pyridin-3-yl)[1,3]thiazolo[4,5-b]pyridine]	–	–	100	3.97	3.95	–
Cc1cc(C)c([S+]([O-])CC(F)(F)F)cc1-c1cnc2nc(-c3cccnc3)sc2c1 (stereo not shown) [Example 20, 6-{2,4-Dimethyl-5-[(2,2,2-trifluoroethyl)sulphinyl]phenyl}-2-(pyridin-3-yl)[1,3]thiazolo[4,5-b]pyridine]	–	–	90	2.54	2.52	–
Cc1cc(F)c(-c2cnc3nc(-c4cccnc4)sc3c2)cc1SCC(F)(F)F [Example 22, 6-{2-Fluoro-4-methyl-5-[(2,2,2-trifluoroethyl)sulphanyl]phenyl}-2-(pyridin-3-yl)[1,3]thiazolo[4,5-b]pyridine]	–	–	100	3.83	3.78	efficacy [3]: 90%
Cc1cc(F)c(-c2cnc3nc(-c4cccnc4)sc3c2)cc1[S+]([O-])CC(F)(F)F (stereo not shown) [Example 23, 6-{2-Fluoro-4-methyl-5-[(2,2,2-trifluoroethyl)sulphinyl]phenyl}-2-(pyridin-3-yl)[1,3]thiazolo[4,5-b]pyridine]	–	–	90	2.5	2.46	–
c1ccc(Nc2cnc3nc(-c4cccnc4)sc3c2)cc1 [Example 24]	2.25	2.27	–	–	–	–
Clc1cccc(Nc2cnc3nc(-c4cccnc4)sc3c2)c1 [Example 25, N-(3-Chlorophenyl)-2-(pyridin-3-yl)[1,3]thiazolo[4,5-b]pyridin-6-amine]	–	–	90	2.66	2.69	–
c1cncc(-c2nc3ncc(-n4cccn4)cc3s2)c1 [Example 26, 6-(1H-Pyrazol-1-yl)-2-(pyridin-3-yl)[1,3]thiazolo[4,5-b]pyridine]	–	–	90	–	1.62	–
FC(F)(F)c1ccn(-c2cnc3nc(-c4cccnc4)sc3c2)n1 [Example 27]	–	–	–	–	2.57	–
FC(F)(F)c1cnn(-c2cnc3nc(-c4cccnc4)sc3c2)c1 [Example 28]	2.48	2.53	–	–	–	–
Cn1cnn(-c2cnc3nc(-c4cccnc4)sc3c2)c1=S [Example 29]	1.00	1.07	–	–	–	–
Cc1nn(-c2cnc3nc(-c4cccnc4)sc3c2)c(=O)n1C [Example 30, 4,5-Dimethyl-2-[2-(pyridin-3-yl)[1,3]thiazolo[4,5-b]pyridin-6-yl]-2,4-dihydro-3H-1,2,4-triazol-3-one]	–	–	100	1.23	1.42	–
Cc1nn(-c2cnc3nc(-c4cccnc4)sc3c2)c(=S)n1C [Example 31, 4,5-Dimethyl-2-[2-(pyridin-3-yl)[1,3]thiazolo[4,5-b]pyridin-6-yl]-2,4-dihydro-3H-1,2,4-triazole-3-thione]	–	–	90	0.97	1.21	–
CSCCNC(=O)c1cnc2nc(-c3cccnc3)sc2c1 [Example 52, N-[2-(Methylsulphanyl)ethyl]-2-(pyridin-3-yl)[1,3]thiazolo[4,5-b]pyridine-6-carboxamide]	–	–	–	1.39	–	–
CS(=O)(=O)CCNC(=O)c1cnc2nc(-c3cccnc3)sc2c1 [Example 54, N-[2-(Methylsulphonyl)ethyl]-2-(pyridin-3-yl)[1,3]thiazolo[4,5-b]pyridine-6-carboxamide]	–	–	–	0.84	–	–
O=C(Nc1cccc(SC(F)(F)F)c1)c1cnc2nc(-c3cncc(F)c3)sc2c1 [Example 57, 2-(5-Fluoropyridin-3-yl)-N-{3-[(trifluoromethyl)sulphanyl]phenyl}[1,3]thiazolo[4,5-b]pyridine-6-carboxamide]	–	–	–	3.53	–	–
O=C(Nc1cccc([S+]([O-])C(F)(F)F)c1)c1cnc2nc(-c3cncc(F)c3)sc2c1 (stereo not shown) [Example 58, 2-(5-Fluoropyridin-3-yl)-N-{3-[(trifluoromethyl)sulphinyl]phenyl}[1,3]thiazolo[4,5-b]pyridine-6-carboxamide]	–	–	–	2.54	–	–
Brc1cnc2nc(-c3cccnc3)sc2c1 [I-a-1, 6-bromo-2-(pyridin-3-yl)[1,3]thiazolo[4,5-b]pyridine]	–	–	–	–	1.95	–
